Results on 10 compounds are retold here after patent US12590123B2, “Compounds and methods for treating cancer, viral infections, and allergic conditions” (Washington University, priority 2019, dated 2026).

Molecules are shown by their SMILES. Like-named read-outs stand apart in the source and are kept apart here.

One assay addresses T1, activated hepsin (Homo sapiens, UniProt P05981).
T1 construct: purchased R&D Systems 4776-SE-010
Nature of the assay: Fluorescent kinetic enzyme assay of hepsin activity (Boc-QAR-AMC). The format is biochemical.

For another assay, the target named is T2, matriptase (Homo sapiens, UniProt Q9Y5Y6).
T2 construct: purchased R&D Systems 3946-SE-010
T2 sequence (Q9Y5Y6 615-855 limits assumed): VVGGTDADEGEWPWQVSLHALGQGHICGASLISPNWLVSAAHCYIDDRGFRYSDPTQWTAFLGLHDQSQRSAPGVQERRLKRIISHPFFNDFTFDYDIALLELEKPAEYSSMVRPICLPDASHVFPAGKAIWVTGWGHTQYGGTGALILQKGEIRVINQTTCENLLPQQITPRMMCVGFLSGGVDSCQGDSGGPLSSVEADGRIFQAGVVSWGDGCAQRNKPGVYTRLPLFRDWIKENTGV
Nature of the assay: Fluorescent kinetic enzyme assay of matriptase activity (Boc-QAR-AMC). The format is biochemical. To be noted: Table 2; read-out: Matriptase (IC50 nM).

The mark [1] stands for this setting: Table 3, average of three experiments, read-out: Hepsin IC50.

T1 sequence (P05981 163-417 limits assumed): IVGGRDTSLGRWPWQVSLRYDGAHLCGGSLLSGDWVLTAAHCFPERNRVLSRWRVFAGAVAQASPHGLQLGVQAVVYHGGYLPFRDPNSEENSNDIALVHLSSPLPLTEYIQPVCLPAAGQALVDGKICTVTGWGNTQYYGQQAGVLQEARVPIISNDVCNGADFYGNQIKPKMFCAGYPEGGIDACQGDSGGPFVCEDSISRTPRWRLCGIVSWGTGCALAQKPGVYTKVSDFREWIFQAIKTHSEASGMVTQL
T1 sequence (P05981 1-162 partner limits assumed): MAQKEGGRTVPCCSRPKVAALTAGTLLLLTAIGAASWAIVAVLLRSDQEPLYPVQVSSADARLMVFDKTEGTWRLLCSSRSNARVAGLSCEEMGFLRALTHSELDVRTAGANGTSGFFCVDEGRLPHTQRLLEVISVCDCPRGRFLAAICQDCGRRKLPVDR
Method for activated hepsin: After thirty minutes of incubation at room temperature, Boc-QLR-AMC substrate was added (HGFA assay) or Boc-QAR-AMC substrate (matriptase, and hepsin assays). […] From a plot of the mean reaction velocity versus the inhibitor concentration, a non-linear four parameter curve fit was performed using GraphPad Prism (GraphPad Software, San Diego, CA) to determine inhibitor IC50s. The IC50 values were determined from the average of three or more separate experimental determinations. Apparent Ki values were calculated using the Cheng and Prusoff equation (Ki=IC50/(1+[S]/Km).
Inhibitors were pre-incubated with protease followed by the addition of the substrate. Inhibition of substrate proteolysis derived fluorescence was monitored kinetically over a period of one hour.

On to `CC(=O)N1CCC(OC(=O)N[C@@H](CC(C)C)C(=O)N[C@@H](CCCNC(=N)N)C(=O)c2nc3ccccc3s2)CC1` [Compound 8e, 1-acetylpiperidin-4-yl ((S)-1-(((S)-1-(benzo[d]thiazol-2-yl)-5-guanidino-1-oxopentan-2-yl)amino)-4-methyl-1-oxopentan-2-yl)carbamate], for which the IC50 (commonly the point on the concentration scale where inhibition reaches its midpoint) on activated hepsin (setting [1]) amounted to 20 nM.

Consider `CC(C)C[C@H](NC(=O)OC1CCN(S(=O)(=O)c2ccccc2)CC1)C(=O)N[C@@H](CCCNC(=N)N)C(=O)c1nc2ccccc2s1` [Compound 8f, 1-(phenylsulfonyl)piperidin-4-yl ((S)-1-(((S)-1-(benzo[d]thiazol-2-yl)-5-guanidino-1-oxopentan-2-yl)amino)-4-methyl-1-oxopentan-2-yl)carbamate], for which, on activated hepsin (setting [1]), the IC50 worked out at 20 nM.

As for `CC(C)C[C@H](NC(=O)OC1CCN(S(=O)(=O)c2ccccc2F)CC1)C(=O)N[C@@H](CCCNC(=N)N)C(=O)c1nc2ccccc2s1` [Compound 8g, 1-((2-fluorophenyl)sulfonyl)piperidin-4-yl ((S)-1-(((S)-1-(benzo[d]thiazol-2-yl)-5-guanidino-1-oxopentan-2-yl)amino)-4-methyl-1-oxopentan-2-yl)carbamate], the IC50 on activated hepsin (setting [1]) stood at 70 nM.

For the compound `CCS(=O)(=O)N1CCC(OC(=O)N[C@@H](CC(C)C)C(=O)N[C@@H](CCCNC(=N)N)C(=O)c2nc3ccccc3s2)CC1` [Compound 8h, 1-(ethylsulfonyl)piperidin-4-yl ((S)-1-(((S)-1-(benzo[d]thiazol-2-yl)-5-guanidino-1-oxopentan-2-yl)amino)-4-methyl-1-oxopentan-2-yl)carbamate], at activated hepsin (setting [1]), the IC50 was determined as 10 nM.

Consider `CC(C)C[C@H](NC(=O)OC1CCN(S(=O)(=O)c2ccc(Cl)cc2)CC1)C(=O)N[C@@H](CCCNC(=N)N)C(=O)c1nc2ccccc2s1` [Compound 8i, 1-((4-chlorophenyl)sulfonyl)piperidin-4-yl ((S)-1-(((S)-1-(benzo[d]thiazol-2-yl)-5-guanidino-1-oxopentan-2-yl)amino)-4-methyl-1-oxopentan-2-yl)carbamate], for which the IC50 at activated hepsin (setting [1]) was found to be 60 nM.

With `CC(C)C[C@H](NC(=O)OC1CCN(S(=O)(=O)c2cccc(F)c2)CC1)C(=O)N[C@@H](CCCNC(=N)N)C(=O)c1nc2ccccc2s1` [Compound 8j, 1-((3-fluorophenyl)sulfonyl)piperidin-4-yl ((S)-1-(((S)-1-(benzo[d]thiazol-2-yl)-5-guanidino-1-oxopentan-2-yl)amino)-4-methyl-1-oxopentan-2-yl)carbamate], the IC50 at activated hepsin (setting [1]) amounted to 70 nM.

With `CC(C)C[C@H](NC(=O)OC1CCN(S(=O)(=O)c2ccc([N+](=O)[O-])cc2[N+](=O)[O-])CC1)C(=O)N[C@@H](CCCNC(=N)N)C(=O)c1nc2ccccc2s1` [Compound 8k, 1-((2,4-dinitrophenyl)sulfonyl)piperidin-4-yl ((S)-1-(((S)-1-(benzo[d]thiazol-2-yl)-5-guanidino-1-oxopentan-2-yl)amino)-4-methyl-1-oxopentan-2-yl)carbamate], on activated hepsin (setting [1]), the IC50 came out at 110 nM.

For `COc1ccc(Cl)cc1S(=O)(=O)N1CCC(OC(=O)N[C@@H](CC(C)C)C(=O)N[C@@H](CCCNC(=N)N)C(=O)c2nc3ccccc3s2)CC1` [Compound 8l, 1-((5-chloro-2-methoxyphenyl)sulfonyl)piperidin-4-yl ((S)-1-(((S)-1-(benzo[d]thiazol-2-yl)-5-guanidino-1-oxopentan-2-yl)amino)-4-methyl-1-oxopentan-2-yl)carbamate], the IC50 on activated hepsin (setting [1]) turned out to be 60 nM.

As for `Cc1cc(C)c(S(=O)(=O)N2CCC(OC(=O)N[C@@H](CC(C)C)C(=O)N[C@@H](CCCNC(=N)N)C(=O)c3nc4ccccc4s3)CC2)c(C)c1` [Compound 8m, 1-(mesitylsulfonyl)piperidin-4-yl ((S)-1-(((S)-1-(benzo[d]thiazol-2-yl)-5-guanidino-1-oxopentan-2-yl)amino)-4-methyl-1-oxopentan-2-yl)carbamate], the IC50 on activated hepsin (setting [1]) was found to be 110 nM.

For `CC(=O)N[C@H]1Cc2ccc(cc2)OC/C=C\CNC(=O)C[C@@H](C(=O)N[C@@H](CCCNC(=N)N)C(=O)c2nc3ccccc3s2)NC(=O)[C@H](CC(C)C)NC1=O` [VD4054, (10S,13S,16S,Z)-16-acetamido-N—((S)-1-(benzo[d]thiazol-2-yl)-5-guanidino-1-oxopentan-2-yl)-13-isobutyl-8,12,15-trioxo-2-oxa-7,11,14-triaza-1(1,4)-benzenacycloheptadecaphan-4-ene-10-carboxamide], the IC50 turned out to be 72.6 nM on matriptase and 0.643 nM on activated hepsin (Table 2, read-out: Hepsin (IC50 nM)).
